We go through 18 compounds from US11613527B2, “Enzyme inhibitors” (KalVista Pharmaceuticals Limited, priority 2019, dated 2023).

Structures are written as SMILES. Converted amounts (≈) assume the structure as drawn. A value given as a limit tells only on which side of the number the result lay.

Series [1] deals with Human plasma kallikrein (Homo sapiens (Human), UniProt P03952). Nature of the series: Determination of the IC50 for plasma kallikrein (fluorogenic substrate H-DPro-Phe-Arg-AFC). As to conditions: class symbols A-D, read-out: IC50 (human PKal). The class given is biochemical. In a few lines:
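Enzyme from a commercial source was incubated at 25° C. with H-DPro-Phe-Arg-AFC substrate and a range of test compound concentrations. Residual activity was taken as the initial reaction rate, followed by absorbance change at 410 nm, and IC50 values were derived from it.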

Series [2] has as its target Human FXIa (Homo sapiens (Human), UniProt P03951). In words: Determination of the % inhibition for FXIa (fluorogenic substrate Z-Gly-Pro-Arg-AFC; 40 μM or IC50). The class given is biochemical. The gist of the method: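 Human FXIa incubated at 25 °C with fluorogenic substrate Z-Gly-Pro-Arg-AFC and test compound at 40 μM for % inhibition, or a concentration series for IC50. Residual activity taken as initial rate from absorbance change at 410 nm.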

Series [3] addresses Human KLK1 (Homo sapiens (Human), UniProt P06870). In words: Determination of the IC50 for KLK1 (fluorogenic substrate H-DVal-Leu-Arg-AFC). The class given is biochemical. In a few lines: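 Human KLK1 incubated at 25° C. with fluorogenic substrate H-DVal-Leu-Arg-AFC and a range of test compound concentrations. Residual activity taken as initial reaction rate from absorbance change at 410 nm; IC50 derived from these rates.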

A short description of series [4]: Solubility after 24 hrs in Fasted State Simulated Intestinal Fluid (FaSSIF). The class given is physicochemical. As to conditions: 24 hrs at 37° C., nominal concentration 1 mg/mL (as free base); for solubility at 24 h: Fasted State Simulated Intestinal Fluid (FaSSIF), thermodynamic from solid. The method, then:
Selected compounds were further screened for solubility in Fasted State Simulated Intestinal Fluid (FaSSIF).
Approximately 1 mg of test compound is accurately weighed into a 2 mL vial. Volumes of the FaSSIF solution (pre-heated to 37° C.) were added to a vial to give a nominal concentration of 1 mg/mL (as free base). The FaSSIF solution was prepared on the day of use. The samples were vortexed before being placed in a Titramax 1000 shaker for 24 hrs at 37° C. and approximately 500 rpm. The samples were transferred to eppendorf tubes and centrifuged at 15,000 g (r.c.f.) for 10 min at 37° C. and analysed for concentration of test compound by LCMS.

Chain of Human KLK1 (P06870 25-262): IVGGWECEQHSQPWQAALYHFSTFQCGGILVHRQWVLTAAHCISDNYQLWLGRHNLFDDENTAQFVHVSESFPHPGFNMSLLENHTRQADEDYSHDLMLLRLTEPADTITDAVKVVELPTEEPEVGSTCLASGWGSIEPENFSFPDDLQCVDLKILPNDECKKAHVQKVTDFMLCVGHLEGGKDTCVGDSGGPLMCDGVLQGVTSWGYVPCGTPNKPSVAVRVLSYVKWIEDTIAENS
Chain of Human FXIa (P03951 388-625): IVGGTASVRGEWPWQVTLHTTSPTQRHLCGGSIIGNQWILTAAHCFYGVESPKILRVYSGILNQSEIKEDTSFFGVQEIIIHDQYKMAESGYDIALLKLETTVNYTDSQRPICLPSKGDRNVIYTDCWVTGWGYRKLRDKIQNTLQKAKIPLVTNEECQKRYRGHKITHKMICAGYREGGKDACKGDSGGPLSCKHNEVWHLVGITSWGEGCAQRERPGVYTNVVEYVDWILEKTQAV
Chain of Human FXIa (P03951 19-387 partner): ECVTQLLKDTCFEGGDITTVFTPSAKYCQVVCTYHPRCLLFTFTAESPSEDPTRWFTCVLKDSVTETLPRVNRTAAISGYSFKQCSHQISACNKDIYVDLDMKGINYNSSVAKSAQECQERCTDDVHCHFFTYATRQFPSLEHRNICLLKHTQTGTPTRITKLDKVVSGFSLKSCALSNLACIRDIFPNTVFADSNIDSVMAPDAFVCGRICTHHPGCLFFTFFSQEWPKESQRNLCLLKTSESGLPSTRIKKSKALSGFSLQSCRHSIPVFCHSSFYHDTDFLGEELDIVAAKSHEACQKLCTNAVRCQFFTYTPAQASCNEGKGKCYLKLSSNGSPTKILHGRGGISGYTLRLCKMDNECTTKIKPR
Chain of Human plasma kallikrein (P03952 391-638): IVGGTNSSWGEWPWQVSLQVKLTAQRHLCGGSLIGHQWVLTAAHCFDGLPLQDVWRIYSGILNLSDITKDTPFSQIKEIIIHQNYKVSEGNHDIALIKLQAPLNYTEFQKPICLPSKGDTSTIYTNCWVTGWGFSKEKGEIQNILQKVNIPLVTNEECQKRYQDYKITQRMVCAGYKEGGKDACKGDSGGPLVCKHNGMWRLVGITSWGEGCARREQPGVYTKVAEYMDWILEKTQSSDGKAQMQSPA
Chain of Human plasma kallikrein (P03952 20-390 partner): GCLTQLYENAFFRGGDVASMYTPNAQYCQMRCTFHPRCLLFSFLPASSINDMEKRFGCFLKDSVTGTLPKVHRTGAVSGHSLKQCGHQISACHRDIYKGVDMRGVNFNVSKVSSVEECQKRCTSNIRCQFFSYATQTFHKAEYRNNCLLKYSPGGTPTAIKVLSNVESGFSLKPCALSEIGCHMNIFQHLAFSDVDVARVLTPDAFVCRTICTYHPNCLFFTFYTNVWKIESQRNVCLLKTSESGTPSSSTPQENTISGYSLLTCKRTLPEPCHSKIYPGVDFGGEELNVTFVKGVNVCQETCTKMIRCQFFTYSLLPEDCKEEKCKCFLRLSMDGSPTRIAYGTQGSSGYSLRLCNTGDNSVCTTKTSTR

As for `COCc1nn(Cc2ccc3c(c2)CN(C)CC3)cc1C(=O)NCc1c(-n2cnc(C)n2)ccc(OC)c1F` [Example 4, N-{[2-fluoro-3-methoxy-6-(3-methyl-1,2,4-triazol-1-yl)phenyl]methyl}-3-(methoxymethyl)-1-[(2-methyl-3,4-dihydro-1H-isoquinolin-7-yl)methyl]pyrazole-4-carboxamide], the IC50 was < 0.01 µM in series [1], 1.03 µM in series [2] and > 40 µM in series [3]. Also, the solubility at 24 h in series [4] is > 1000 µg/mL.

Consider `COCc1nn(Cc2ccc3c(c2)CN(C)CC3)cc1C(=O)NCc1c(-n2ccc(C#N)n2)ccc(OC)c1F` [Example 11, N-{[6-(3-cyanopyrazol-1-yl)-2-fluoro-3-methoxyphenyl]methyl}-3-(methoxymethyl)-1-[(2-methyl-3,4-dihydro-1H-isoquinolin-7-yl)methyl]pyrazole-4-carboxamide], for which the IC50 in series [1] is < 0.01 µM; in series [2], 18.9 µM; in series [3] it was > 40 µM. Besides, in series [4], the concentration in solution (solubility at 24 h) was 730 µg/mL (≈ 1340 µM).

Take `COCc1nn(Cc2ccc3c(c2)CN(C(C)C)CC3)cc1C(=O)NCc1c(-n2cnc(C(F)(F)F)n2)ccc(OC)c1F` [Example 22, N-({2-fluoro-3-methoxy-6-[3-(trifluoromethyl)-1,2,4-triazol-1-yl]phenyl}methyl)-1-[(2-isopropyl-3,4-dihydro-1H-isoquinolin-7-yl)methyl]-3-(methoxymethyl)pyrazole-4-carboxamide]: the values for the IC50 in series [1], in series [2] and in series [3] were < 0.01 µM, > 40 µM and > 40 µM, respectively. Moreover, the solubility at 24 h in series [4] is 760 µg/mL (≈ 1230 µM).

In the case of `CCN1CCc2ccc(Cn3cc(C(=O)NCc4c(-n5cnc(C(F)(F)F)n5)ccc(OC)c4F)c(COC)n3)cc2C1` [Example 25, 1-[(2-ethyl-3,4-dihydro-1H-isoquinolin-7-yl)methyl]-N-({2-fluoro-3-methoxy-6-[3-(trifluoromethyl)-1,2,4-triazol-1-yl]phenyl}methyl)-3-(methoxymethyl)pyrazole-4-carboxamide], the half-maximal inhibitory concentration (IC50) in series [1] was < 0.01 µM; in series [2] it was > 40 µM; in series [3], > 40 µM. In series [4], the concentration in solution (solubility at 24 h) was 1000 µg/mL (≈ 1660 µM).

Turning to `[2H]C([2H])([2H])N1CCc2ccc(Cn3cc(C(=O)NCc4c(-n5cc(C)nn5)ccc(OC)c4F)c(COC)n3)cc2C1` [Example 119, N-{[2-fluoro-3-methoxy-6-(4-methyl-1,2,3-triazol-1-yl)phenyl]methyl}-3-(methoxymethyl)-1-{[2-(^2H3)methyl-3,4-dihydro-1H-isoquinolin-7-yl]methyl}pyrazole-4-carboxamide], the “FASSIF Solubility 24 hrs” value in series [4] is 960 µg/mL.

Take `COCc1nn(Cc2ccc3c(c2)C(C)(C)N(C)C3)cc1C(=O)NCc1c(-n2cc(C)nn2)ccc(OC)c1F` [Example 124, N-{[2-fluoro-3-methoxy-6-(4-methyl-1,2,3-triazol-1-yl)phenyl]methyl}-3-(methoxymethyl)-1-[(2,3,3-trimethyl-1H-isoindol-5-yl)methyl]pyrazole-4-carboxamide]: the half-maximal inhibitory concentration (IC50) in series [1] is 0.03 to 0.1 µM; in series [2] it was > 40 µM; in series [3] it was > 40 µM.

As for `COCc1nn(Cc2cnc3c(c2)CN(C(C)C)CC3)cc1C(=O)NCc1c(-n2cc(C)nn2)ccc(OC)c1F` [Example 132, N-{[2-fluoro-3-methoxy-6-(4-methyl-1H-1,2,3-triazol-1-yl)phenyl]methyl}-3-(methoxymethyl)-1-{[6-(propan-2-yl)-5,6,7,8-tetrahydro-1,6-naphthyridin-3-yl]methyl}-1H-pyrazole-4-carboxamide], in series [1], the IC50 fell in the range of 0.01 to 0.03 µM. The solubility at 24 h in series [4] was 560 µg/mL (≈ 995 µM).

`COCc1nn(Cc2ccc3c(c2)CN(C)CC3(C)C)cc1C(=O)NCc1c(-n2cc(C)nn2)ccc(OC)c1F` [Example 134, N-{[2-fluoro-3-methoxy-6-(4-methyl-1,2,3-triazol-1-yl)phenyl]methyl}-3-(methoxymethyl)-1-[(2,4,4-trimethyl-1,3-dihydroisoquinolin-7-yl)methyl]pyrazole-4-carboxamide]: the IC50 in series [1] is 0.01 to 0.03 µM; in series [2], > 40 µM; in series [3], > 40 µM.

With `COCc1nn(Cc2ccc3c(c2)CCN(C)C3=O)cc1C(=O)NCc1c(-n2cc(C)nn2)ccc(OC)c1F` [Example 135, N-{[2-fluoro-3-methoxy-6-(4-methyl-1,2,3-triazol-1-yl)phenyl]methyl}-3-(methoxymethyl)-1-[(2-methyl-1-oxo-3,4-dihydroisoquinolin-6-yl)methyl]pyrazole-4-carboxamide], the IC50 in series [1] is 0.01 to 0.03 µM; in series [2], 16.3 µM; in series [3] it was > 40 µM.

For `COc1ccc(-n2cc(C)nn2)c(CNC(=O)c2cn(Cc3ccc4c(c3)CN(C(C)C)C4)c(C3CC3)n2)c1F` [Example 150, 2-cyclopropyl-N-{[2-fluoro-3-methoxy-6-(4-methyl-1,2,3-triazol-1-yl)phenyl]methyl}-1-[(2-isopropyl-1,3-dihydroisoindol-5-yl)methyl]imidazole-4-carboxamide], the IC50 in series [1] was 0.01 to 0.03 µM; in series [2], > 40 µM; in series [3], > 40 µM.

In the case of `COCc1nn(Cc2ccc3c(c2)CN(C)CC3)cc1C(=O)NCc1c(-n2cnc(C(F)F)n2)ccc(Cl)c1F` [Example 155, N-({3-chloro-6-[3-(difluoromethyl)-1,2,4-triazol-1-yl]-2-fluorophenyl}methyl)-3-(methoxymethyl)-1-[(2-methyl-3,4-dihydro-1H-isoquinolin-7-yl)methyl]pyrazole-4-carboxamide], the IC50 in series [1] is 0.1 to 1 µM; in series [2] it was > 40 µM; in series [3], > 40 µM.

For `COCc1nn(Cc2ccc3c(c2)CN(C)CC3)cc1C(=O)NCc1c(-n2cnc(C(F)F)n2)ccc(C(C)(F)F)c1F` [Example 157, N-{[3-(1,1-difluoroethyl)-6-[3-(difluoromethyl)-1,2,4-triazol-1-yl]-2-fluorophenyl]methyl}-3-(methoxymethyl)-1-[(2-methyl-3,4-dihydro-1H-isoquinolin-7-yl)methyl]pyrazole-4-carboxamide], the IC50 in series [1] is 0.1 to 1 µM; in series [2], > 40 µM; in series [3], > 40 µM.

In the case of `COCc1nn(Cc2ccc3c(c2)CCN(C)CC3)cc1C(=O)NCc1c(-n2cnc(C(F)(F)F)n2)ccc(OC)c1F` [Example 158, N-({2-fluoro-3-methoxy-6-[3-(trifluoromethyl)-1,2,4-triazol-1-yl]phenyl}methyl)-3-(methoxymethyl)-1-[(3-methyl-1,2,4,5-tetrahydro-3-benzazepin-7-yl)methyl]pyrazole-4-carboxamide], the values for the IC50 in series [1], in series [2] and in series [3] were < 0.01 µM, > 40 µM and > 40 µM, respectively.

For the compound `COc1ccc(-n2cc(C)nn2)c(CNC(=O)c2ccn(Cc3ccc4c(c3)CN(C)CC4)c(=O)c2)c1F` [Example 159, N-{[2-fluoro-3-methoxy-6-(4-methyl-1,2,3-triazol-1-yl)phenyl]methyl}-1-[(2-methyl-3,4-dihydro-1H-isoquinolin-7-yl)methyl]-2-oxopyridine-4-carboxamide], the results for the IC50 in series [1], in series [2] and in series [3] were 0.1 to 1 µM, > 40 µM and > 40 µM, respectively.

For the compound `COCc1nn(Cc2ccc3ccncc3c2)cc1C(=O)NCc1c(-n2cc(C)nn2)ccc(OC)c1F` [RC1, N-{[2-fluoro-3-methoxy-6-(4-methyl-1,2,3-triazol-1-yl)phenyl]methyl}-1-(isoquinolin-7-ylmethyl)-3-(methoxymethyl)pyrazole-4-carboxamide, reference compound], the half-maximal inhibitory concentration (IC50) in series [1] was 0.1 to 1 µM. Besides, the concentration in solution in series [4] (solubility at 24 h) was 40 µg/mL (≈ 77.6 µM).

As to `COCc1nn(Cc2cnc(N3CCCC3)nc2)cc1C(=O)NCc1c(-n2cnnn2)ccc(OC)c1F` [RC4, N-{[2-fluoro-3-methoxy-6-(1,2,3,4-tetrazol-1-yl)phenyl]methyl}-3-(methoxymethyl)-1-{[2-(pyrrolidin-1-yl)pyrimidin-5-yl]methyl}pyrazole-4-carboxamide, reference compound], the half-maximal inhibitory concentration (IC50) is < 0.01 µM in series [1] and > 40 µM in series [3]. The compound also gave a solubility at 24 h in series [4] of 170 µg/mL (≈ 325 µM).

On to `COCc1nn(Cc2cnc(N3CCCC3)nc2)cc1C(=O)NCc1c(-n2ccnn2)ccc(OC)c1F` [RC5, N-{[2-fluoro-3-methoxy-6-(1,2,3-triazol-1-yl)phenyl]methyl}-3-(methoxymethyl)-1-{[2-(pyrrolidin-1-yl)pyrimidin-5-yl]methyl}pyrazole-4-carboxamide, reference compound], for which the solubility at 24 h in series [4] was 20 µg/mL (≈ 38.3 µM).

In series [4], `COCc1nn(Cc2cnc(N3CCCC3)nc2)cc1C(=O)NCc1c(-n2cc(C)nn2)ccc(OC)c1F` [RC6, N-{[2-fluoro-3-methoxy-6-(4-methyl-1,2,3-triazol-1-yl)phenyl]methyl}-3-(methoxymethyl)-1-{[2-(pyrrolidin-1-yl)pyrimidin-5-yl]methyl}pyrazole-4-carboxamide, reference compound] had a solubility at 24 h of 100 µg/mL (≈ 187 µM).
